# In patent US20150366839A1, “Schisantherin A for the treatment of neurodegenerative diseases” (priority 2014, published 2015):
# Legend:
# [1] = test system: SH-SY5Y cells; assay: MTT cytotoxicity of the five lignans; format: cell-based
# Method: Human neuroblastoma SH-SY5Y cells were purchased from the American Type Culture Collection (ATCC, Manassas, Va., USA) and cultured in a humidified 5% (v/v) CO2 atmosphere in 37° C. in Dulbecco's Modified Eagle Medium (DMEM) (Life technologies, NY, USA) supplemented with 10% FBS, 1% penicillin (100 U/mL) and streptomycin (100 μg/mL). All experiments were carried out 48 h after the cells were seeded.
# Cell viability was determined by 3-(4,5-dimethyl-2-thiazolyl) 2,5-diphenyl-2H-tetrazolium bromide (MTT) assay (Sigma-Aldrich, USA). SH-SY5Y cells were seeded in 96-well plates (1×10^4 cells/well) for 48 h. SH-SY5Y cells were pre-treated with different concentrations of the five lignans (i.e. Schizandrin A, Schizandrin B, SC, Schizandrol A and SchiA) for 12 h and the cell viability was checked by MTT assay. Otherwise, SH-SY5Y cells were pre-treated with different concentrations of the five lignans for 12 h and then exposed to 400 μM 6-OHDA for 4 h. Cells were incubated at 37° C. for 4 h in 0.5 mg/mL MTT solution (prepared in serum free DMEM medium). The medium was then removed, and 100 μL of DMSO was added to each well to dissolve the violet-formazan crystals. The absorbance at 570 nm with 655 nm as a reference wavelength was measured by a multi-label counter (Wallac VICTOR3TMV, Perkin Elmer, Netherlands). Cell viability was expressed as a percentage of the value of the cells without 6-OHDA treatment. The LC50 and EC50 were calculated by GraphPad Prism V5.0 (GraphPad Software, Inc., San Diego, Calif.).
# To evaluate the cytotoxicity of five selected lignans of S. chinensis, SH-SY5Y cells were treated with various concentrations of the tested compounds for 12 h and the cell viability was measured using the MTT assay.
# To evaluate the cytotoxicity of five selected lignans of S. chinensis, SH-SY5Y cells were treated with various concentrations of the tested compounds for 12 h and the cell viability was measured using the MTT assay. […] To further study the neuroprotective activities of the five lignans in vitro, cells were treated with various concentrations of the tested compounds for 12 h before exposed to MPP^+. […] Values represent mean±S.D. ###P<0.005 versus control group; *p<0.05, **p<0.01 and *** p<0.005 versus MPP group. […] The therapeutic index of SchiA and SC were 14.9 and 8.8, respectively.
# [2] = test system: intracellular NO in SH-SY5Y cells; assay: 6-OHDA-induced NO production (DAF-FM diacetate); format: cell-based, Human
# Method: Intracellular NO was evaluated by using the fluorescent probe 4-amino-5-methylamino-2′,7′-difluorofluoresecin diacetate (DAF-FM diacetate), which is cell-permeant and diffuses passively across cellular membranes. Once inside the cells, DAF-FM diacetate is deacetylated by intracellular esterases to DAF-FM. DAF-FM is essentially non-fluorescent until DAF-FM reacts with NO. Thus, it can be used to quantify intracellular NO production. The cells were seeded in 96-well, black bottom-clear plates. […] The cells were then washed twice in PBS and the fluorescence was evaluated in a multi-label counter at an excitation wavelength of 495 nm and an emission wavelength of 515 nm. The increase in fluorescence for each treatment was calculated as the relative fluorescence of each treatment compared with the untreated control cells.
# Augmented NO production subsequent to iNOS induction appears to play an important role in the initial phase of 6-OHDA-induced neuro-damage models in vitro and in vivo (Singh, Das et al. 2005; Lin, Uang et al. 2007; Shih, Chen et al. 2011). […] Expression of the total iNOS proteins were determined by Western blot analysis. […] Results of FIGS. 4A-C are expressed as a percentage of relative fluorescent intensity (RFI) of the Control group. ###P<0.005 versus control group; *p<0.05, **p<0.01 and *** p<0.005 versus 6-OHDA group.
# [3] = Blood brain barrier experiment; format: in vivo, rat
# Method: To investigate the capability of permeation of blood brain barrier (BBB). On the experimental day, heart perfusion was chosen to clear blood interference at brain under 10% chloralic hydras (i.p. 250 mg/kg) anesthesia, and brain was collected at scheduled time after dosing.
# Brain tissues were thawed and homogenized in precooled saline (at the 1:2 g:ml ratio). 250 μl of homogenized solution was added 200 μl acetonitrile and 150 μl methanol. After vortexing for 20 s, centrifugations at 12,000 rpm for 10 min were for the separation. The denatured protein was separated and the supernatant was collected and filtered through a 0.22 μm membrane. A 20 μl volume of the supernatant was injected into HPLC for analysis.
# Quantitative analysis of SchiA was completed on an Agilent series 1260 HPLC apparatus (Agilent Technologies, Santa Clara, Calif., USA) equipped with a vacuum degasser, a quaternary pump, a manual sampler and an ultraviolet detector. RP Phenonenex C-18 column (250 mm×4.6 mm, 5 μm) was used to separate at 35° C. with a mobile phase of water and methanol (83:17, v/v). The flow rate was 1 ml/min. The monitoring wavelength of SchiA was 230 nm.
# And then non-compartmental model of DAS 2.0 program was chosen to calculate the major pharmacokinetic parameters.
# The treatment of brain disorders drugs should pass through the blood-brain barrier (BBB) to regulate certain receptors in the CNS for producing effect. Thus the inventors examined whether SchiA could pass BBB. […] Generally, drug distribution was depends on the free drug concentration in plasma which could affect the supply to the target disuse. […] P-gp, functioning as an ATP-dependent drug pump, efficiently extrudes intracellular drugs out of cells, especially anticancer drugs. After oral administrated to plasma, lots of SchiA were combined at intestines and hardly entered into brain by passing through the barrier of P-gp. But after an i.v. bolus injection, SchiA which liked an impact was directly entered into systemic circulation and P-gp was saturated with SchiA speedily and SchiA couldn't stay at brain as long as plasma despite the concentration was considerable. Therefore, it is rationalized the SchiA passed through BBB caused by i.v. and it has been hypothesized that P-gp is the major determinant of SchiA pharmacokinetics.
# [4] = test system: zebrafish larvae; conditions: 2.5-10 μM with 10 μM MPTP, 4 days, 10 min session
# Method: The wild type zebrafish was used for this study. Embryos were collected after natural spawning, staged according to standard criteria and raised synchronously at 28.5° C. in embryo medium (13.7 mM NaCl, 540 μM KCl, pH 7.4, 25 μM Na2HPO4, 44 μM KH2PO4, 300 μM CaCl2, 100 μM MgSO4, 420 μM NaHCO3, pH 7.4). Zebrafish were staged by days post fertilization (dpf) according to criteria. […] Drugs (i.e. the five lignans) were dissolved in DMSO and directly added into the zebrafish embryo medium to treat fish. […] An equal concentration of DMSO in embryo medium was used as vehicle control in each experiment.
# Then the total distance of movement was defined as the distance (in cm) was recorded using a 96-well plate filled with 200 μL embryo medium in a 10 minutes long session. Zebrafish were allowed to accommodate to the environment of the system for 1 hour before the start of the data acquisition.
# In this study, Zebrafish larvae at 3 dpf were exposed to 2.5-10 μM SchiA with or without 10 μM MPTP for another 4 days, and zebrafish larval co-treated with MPTP and 150 μM L-dopa or 3 μM NOM (Nomifensine) were used as positive controls. After treatment, zebrafish were collected to perform locomotion behavior test using Viewpoint Zebrabox system and total distances travelled in 10 min were calculated. […]
# [5] = molecular target: P-gp (Homo sapiens, UniProt P08183); conditions: Pan, Lu et al. 2006; cited from earlier work
# Chain of P-gp (P08183 whole entry): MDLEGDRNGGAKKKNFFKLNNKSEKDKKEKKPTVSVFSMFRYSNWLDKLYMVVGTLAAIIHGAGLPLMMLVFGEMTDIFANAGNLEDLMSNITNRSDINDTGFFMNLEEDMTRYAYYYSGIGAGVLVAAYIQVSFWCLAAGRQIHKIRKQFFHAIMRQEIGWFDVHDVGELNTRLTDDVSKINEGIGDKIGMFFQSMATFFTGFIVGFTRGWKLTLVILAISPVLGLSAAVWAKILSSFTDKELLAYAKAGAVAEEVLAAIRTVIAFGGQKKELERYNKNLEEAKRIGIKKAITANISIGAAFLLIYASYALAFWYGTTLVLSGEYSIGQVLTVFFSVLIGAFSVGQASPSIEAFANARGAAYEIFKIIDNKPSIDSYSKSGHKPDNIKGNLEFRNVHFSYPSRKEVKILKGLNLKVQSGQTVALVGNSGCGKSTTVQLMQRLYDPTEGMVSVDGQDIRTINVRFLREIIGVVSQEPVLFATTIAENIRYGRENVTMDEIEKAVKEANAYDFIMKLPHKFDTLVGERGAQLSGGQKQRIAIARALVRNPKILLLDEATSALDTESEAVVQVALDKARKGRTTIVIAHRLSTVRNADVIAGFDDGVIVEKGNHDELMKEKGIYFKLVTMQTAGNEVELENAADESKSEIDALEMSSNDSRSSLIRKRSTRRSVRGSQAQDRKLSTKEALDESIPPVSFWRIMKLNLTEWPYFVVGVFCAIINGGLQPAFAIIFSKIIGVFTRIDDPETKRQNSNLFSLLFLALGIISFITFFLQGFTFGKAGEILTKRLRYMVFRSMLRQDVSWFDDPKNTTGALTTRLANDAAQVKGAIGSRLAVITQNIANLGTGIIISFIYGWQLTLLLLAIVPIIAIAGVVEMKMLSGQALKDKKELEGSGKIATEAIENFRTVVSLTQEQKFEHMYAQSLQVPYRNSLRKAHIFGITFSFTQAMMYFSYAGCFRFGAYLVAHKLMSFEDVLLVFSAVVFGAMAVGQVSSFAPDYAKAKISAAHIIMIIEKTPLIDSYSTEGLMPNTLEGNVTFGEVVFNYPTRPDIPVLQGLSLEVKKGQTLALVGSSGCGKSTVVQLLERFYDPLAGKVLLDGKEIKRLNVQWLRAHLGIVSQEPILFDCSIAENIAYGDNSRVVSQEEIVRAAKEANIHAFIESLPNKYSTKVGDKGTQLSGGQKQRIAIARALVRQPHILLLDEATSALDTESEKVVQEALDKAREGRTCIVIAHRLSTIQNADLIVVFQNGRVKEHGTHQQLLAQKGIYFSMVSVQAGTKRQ
smiles,measurement,setting,value
"COc1cc2c(c(OC)c1OC)-c1c(cc3c(c1OC)OCO3)C[C@H](C)[C@](C)(O)[C@H]2OC(=O)c1ccccc1 [SchiA, Schisantherin A]",CC50,[1],121 µM
same,6-OHDA-induced increase in DAF-FM fluorescence (NO),"[2]; 60 μM 12 h, then 400 μM 6-OHDA 2 h",inhibited such increase in DAF-FM fluorescence
same,"DAF-FM fluorescence intensity, compound alone","[2]; 60 μM, without 6-OHDA",no effect
same,concentration in brain as % of concentration in plasma,[3]; half an hour post-i.v. bolus injection,54.5%
same,ability to pass the BBB in vivo,[3]; i.v.,able to traverse the BBB in vivo
same,detection in brain samples,"[3]; i.v., up to 6 h",wasn't detected
same,detection in brain,[3]; oral administration,wasn't detected
same,MPTP-induced reduction of total distance of movement,[4],inhibited MPTP-induced reduction of total distance of movement in zebrafish in a dose dependent manner
same,P-gp inhibition,[5],potent P-gp inhibitor
